# In PubChem BioAssay (NCI):
#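 1) Cells in 96-well plates. 2) Compound, 48 h, 5 concentrations. 3) Linear interpolation between surrounding doses. 4) Unreached endpoint = highest concentration. GI50 = concentration required for 50% inhibition of growth. At the TGI there is no net growth.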
# Assays:
# Assay in all cases: DTP human tumour cell line panel, 48 h
# K-562 leukemia = system: K-562 leukemia
# OVCAR-8 ovarian = system: OVCAR-8 ovarian
# HCT-116 colon = system: HCT-116 colon
# CCRF-CEM leukemia = system: CCRF-CEM leukemia
# HL-60(TB) leukemia = system: HL-60(TB) leukemia
# NCI-H226 lung = system: NCI-H226 lung
# UO-31 renal = system: UO-31 renal
# RXF 393 renal = system: RXF 393 renal
# MDA-MB-231 breast = system: MDA-MB-231 breast
# HT29 colon = system: HT29 colon
# PC-3 prostate = system: PC-3 prostate
# HOP-92 NSCLC = system: HOP-92 NSCLC
# SK-MEL-5 melanoma = system: SK-MEL-5 melanoma
# 786-0 renal = system: 786-0 renal
# SF-539 CNS = system: SF-539 CNS
# UACC-62 melanoma = system: UACC-62 melanoma
# SK-OV-3 ovarian = system: SK-OV-3 ovarian
# RPMI-8226 leukemia = system: RPMI-8226 leukemia
# OVCAR-3 ovarian = system: OVCAR-3 ovarian
# BT-549 breast = system: BT-549 breast
# HCT-15 colon = system: HCT-15 colon
# DU-145 prostate = system: DU-145 prostate
# NCI-H460 lung = system: NCI-H460 lung
# SW-620 colon = system: SW-620 colon
# M14 melanoma = system: M14 melanoma
# UACC-257 melanoma = system: UACC-257 melanoma
# MALME-3M melanoma = system: MALME-3M melanoma
# SNB-75 CNS = system: SNB-75 CNS
# SK-MEL-2 melanoma = system: SK-MEL-2 melanoma
# SF-295 CNS = system: SF-295 CNS
# U251 CNS = system: U251 CNS
# A498 renal = system: A498 renal
# HCC-2998 colon = system: HCC-2998 colon
# NCI/ADR-RES ovarian = system: NCI/ADR-RES ovarian
# LOX IMVI melanoma = system: LOX IMVI melanoma
# OVCAR-5 ovarian = system: OVCAR-5 ovarian
# EKVX NSCLC = system: EKVX NSCLC
# HOP-62 NSCLC = system: HOP-62 NSCLC
# SR leukemia = system: SR leukemia
# MDA-MB-435 = system: MDA-MB-435
# NCI-H522 lung = system: NCI-H522 lung
# NCI-H23 lung = system: NCI-H23 lung
# SK-MEL-28 melanoma = system: SK-MEL-28 melanoma
# SN12C renal = system: SN12C renal
# HS 578T breast = system: HS 578T breast
# KM12 colon = system: KM12 colon
# SNB-19 CNS = system: SNB-19 CNS
# IGROV1 ovarian = system: IGROV1 ovarian
# MOLT-4 leukemia = system: MOLT-4 leukemia
# CAKI-1 renal = system: CAKI-1 renal
# A549 NSCLC = system: A549 NSCLC
# MCF7 breast = system: MCF7 breast
# TK-10 renal = system: TK-10 renal
# SF-268 CNS = system: SF-268 CNS
# T-47D breast = system: T-47D breast
# COLO 205 colon = system: COLO 205 colon
# OVCAR-4 ovarian = system: OVCAR-4 ovarian
# ACHN renal = system: ACHN renal
smiles,measurement,setting,value
CN1CCN(Cc2ccc(NC(=O)c3cncc(C#Cc4cnc5ccc(Cl)nn45)c3)cc2C(F)(F)F)CC1,GI50,K-562 leukemia,0.005 µM
same,TGI,K-562 leukemia,2.96 µM
same,GI50,OVCAR-8 ovarian,1.46 µM
same,TGI,OVCAR-8 ovarian,5.27 µM
same,GI50,HCT-116 colon,0.259 µM
same,TGI,HCT-116 colon,1.34 µM
same,GI50,CCRF-CEM leukemia,1.29 µM
same,TGI,CCRF-CEM leukemia,4.84 µM
same,GI50,HL-60(TB) leukemia,0.318 µM
same,TGI,HL-60(TB) leukemia,1.47 µM
same,GI50,NCI-H226 lung,0.507 µM
same,TGI,NCI-H226 lung,2.7 µM
same,GI50,UO-31 renal,1.28 µM
same,TGI,UO-31 renal,3.36 µM
same,GI50,RXF 393 renal,0.828 µM
same,TGI,RXF 393 renal,1.77 µM
same,GI50,MDA-MB-231 breast,0.567 µM
same,TGI,MDA-MB-231 breast,2.3 µM
same,GI50,HT29 colon,0.747 µM
same,TGI,HT29 colon,5.71 µM
same,GI50,PC-3 prostate,1.2 µM
same,TGI,PC-3 prostate,5.24 µM
same,GI50,HOP-92 NSCLC,0.454 µM
same,TGI,HOP-92 NSCLC,3.63 µM
same,GI50,SK-MEL-5 melanoma,0.849 µM
same,TGI,SK-MEL-5 melanoma,1.59 µM
same,GI50,786-0 renal,1.01 µM
same,TGI,786-0 renal,1.85 µM
same,GI50,SF-539 CNS,0.54 µM
same,TGI,SF-539 CNS,1.21 µM
same,GI50,UACC-62 melanoma,0.925 µM
same,TGI,UACC-62 melanoma,2.4 µM
same,GI50,SK-OV-3 ovarian,1.75 µM
same,TGI,SK-OV-3 ovarian,4.96 µM
same,GI50,RPMI-8226 leukemia,0.954 µM
same,TGI,RPMI-8226 leukemia,2.69 µM
same,GI50,OVCAR-3 ovarian,1.58 µM
same,TGI,OVCAR-3 ovarian,4 µM
same,GI50,BT-549 breast,1.45 µM
same,TGI,BT-549 breast,3.85 µM
same,GI50,HCT-15 colon,0.901 µM
same,TGI,HCT-15 colon,3.36 µM
same,GI50,DU-145 prostate,1.18 µM
same,TGI,DU-145 prostate,4.38 µM
same,GI50,NCI-H460 lung,0.871 µM
same,TGI,NCI-H460 lung,2.06 µM
same,GI50,SW-620 colon,0.631 µM
same,TGI,SW-620 colon,3.66 µM
same,GI50,M14 melanoma,0.59 µM
same,TGI,M14 melanoma,1.34 µM
same,GI50,UACC-257 melanoma,1.21 µM
same,TGI,UACC-257 melanoma,4.13 µM
same,GI50,MALME-3M melanoma,0.495 µM
same,TGI,MALME-3M melanoma,1.23 µM
same,GI50,SNB-75 CNS,0.972 µM
same,TGI,SNB-75 CNS,2.1 µM
same,GI50,SK-MEL-2 melanoma,0.744 µM
same,TGI,SK-MEL-2 melanoma,1.98 µM
same,GI50,SF-295 CNS,1.38 µM
same,TGI,SF-295 CNS,5.32 µM
same,GI50,U251 CNS,1.22 µM
same,TGI,U251 CNS,4.34 µM
same,GI50,A498 renal,1.12 µM
same,TGI,A498 renal,2.6 µM
same,GI50,HCC-2998 colon,0.949 µM
same,TGI,HCC-2998 colon,2.66 µM
same,GI50,NCI/ADR-RES ovarian,1.59 µM
same,TGI,NCI/ADR-RES ovarian,5.24 µM
same,GI50,LOX IMVI melanoma,0.757 µM
same,TGI,LOX IMVI melanoma,1.6 µM
same,GI50,OVCAR-5 ovarian,0.83 µM
same,TGI,OVCAR-5 ovarian,3.55 µM
same,GI50,EKVX NSCLC,0.91 µM
same,TGI,EKVX NSCLC,2.34 µM
same,GI50,HOP-62 NSCLC,1.27 µM
same,TGI,HOP-62 NSCLC,3.73 µM
same,GI50,SR leukemia,0.975 µM
same,TGI,SR leukemia,6.1 µM
same,GI50,MDA-MB-435,0.736 µM
same,TGI,MDA-MB-435,2.09 µM
same,GI50,NCI-H522 lung,0.878 µM
same,TGI,NCI-H522 lung,2.78 µM
same,GI50,NCI-H23 lung,0.751 µM
same,TGI,NCI-H23 lung,2.18 µM
same,GI50,SK-MEL-28 melanoma,0.918 µM
same,TGI,SK-MEL-28 melanoma,2.59 µM
same,GI50,SN12C renal,0.969 µM
same,TGI,SN12C renal,3.48 µM
same,GI50,HS 578T breast,0.886 µM
same,TGI,HS 578T breast,3.29 µM
same,GI50,KM12 colon,0.005 µM
same,TGI,KM12 colon,2.13 µM
same,GI50,SNB-19 CNS,1.78 µM
same,TGI,SNB-19 CNS,4.89 µM
same,GI50,IGROV1 ovarian,0.889 µM
same,TGI,IGROV1 ovarian,3.54 µM
same,GI50,MOLT-4 leukemia,0.682 µM
same,TGI,MOLT-4 leukemia,3.89 µM
same,GI50,CAKI-1 renal,1 µM
same,TGI,CAKI-1 renal,4.63 µM
same,GI50,A549 NSCLC,1.28 µM
same,TGI,A549 NSCLC,4.29 µM
same,GI50,MCF7 breast,0.287 µM
same,TGI,MCF7 breast,1.92 µM
same,GI50,TK-10 renal,1.64 µM
same,TGI,TK-10 renal,4.46 µM
same,GI50,SF-268 CNS,1.25 µM
same,TGI,SF-268 CNS,2.83 µM
same,GI50,T-47D breast,1.41 µM
same,TGI,T-47D breast,6.58 µM
same,GI50,COLO 205 colon,0.688 µM
same,TGI,COLO 205 colon,2.08 µM
same,GI50,OVCAR-4 ovarian,0.453 µM
same,TGI,OVCAR-4 ovarian,3.66 µM
same,GI50,ACHN renal,0.769 µM
same,TGI,ACHN renal,2.94 µM
